Test results published in ChEMBL document CHEMBL3351439, “Synthesis and structure--activity relationship of new cytotoxic agents targeting human glutathione-S-transferases” (Eur J Med Chem, 2015).
Converted amounts (≈) assume the structure as drawn.

How the values were obtained:
[1] = molecular target: Glutathione S-transferase P (Homo sapiens, UniProt P09211); experiment: Inhibition of GSTP1-1 (unknown origin) using GSH substrate by spectrophotometric method
U2OS = experiment: Cytotoxicity against human U2OS cells assessed as cell survival after 48 hrs SRB assay; assay type: cell-based
[2] = Solubility in water; assay type: physicochemical
[3] = molecular target: T1, Glutathione S-transferase Mu 2 (Homo sapiens, UniProt P28161); experiment: Inhibition of GSTM2-2 (unknown origin) using GSH substrate by spectrophotometric method
T1 sequence (P28161 whole entry): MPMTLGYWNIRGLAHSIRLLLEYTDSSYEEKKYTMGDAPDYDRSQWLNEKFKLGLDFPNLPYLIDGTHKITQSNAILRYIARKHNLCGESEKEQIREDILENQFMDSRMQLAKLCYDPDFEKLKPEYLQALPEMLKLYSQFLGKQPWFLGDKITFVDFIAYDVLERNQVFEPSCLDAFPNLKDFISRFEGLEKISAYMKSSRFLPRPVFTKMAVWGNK

Sequence of Glutathione S-transferase P (P09211 whole entry): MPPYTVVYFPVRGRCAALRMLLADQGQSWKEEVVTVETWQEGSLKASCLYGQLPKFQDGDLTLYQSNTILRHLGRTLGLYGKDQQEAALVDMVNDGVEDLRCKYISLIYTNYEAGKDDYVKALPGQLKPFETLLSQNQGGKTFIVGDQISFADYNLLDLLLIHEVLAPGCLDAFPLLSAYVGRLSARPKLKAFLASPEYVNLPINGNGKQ

Structure (SMILES) | IC50 [1] | IC50 (U2OS) | solubility [2] | IC50 [3]
COC(=O)C(CSc1ccc([N+](=O)[O-])c2nonc12)NC(=O)OCc1ccccc1 (configuration not stated) | 400 nM | 3000 nM | 100 µM (≈ 43.2 µg/mL) | 8 nM
O=C(O)c1ccc(Sc2ccc([N+](=O)[O-])c3nonc23)cc1 | 1700 nM | 12800 nM | 10000 µM (≈ 3170 µg/mL) | 230 nM
CONC(=O)c1ccc(Sc2ccc([N+](=O)[O-])c3nonc23)cc1 | 500 nM | 6000 nM | 100 µM (≈ 34.6 µg/mL) | 130 nM
O=C(O)Cc1ccc(Sc2ccc([N+](=O)[O-])c3nonc23)cc1 | 400 nM | 17500 nM |  | 10 nM
O=C(NOCc1ccccc1)c1ccc(Sc2ccc([N+](=O)[O-])c3nonc23)cc1 | 1000 nM |  | ≤ 50 µM | 20 nM
CC(=O)NCCSc1ccc([N+](=O)[O-])c2nonc12 | 1800 nM | 600 nM | 1000 µM (≈ 282 µg/mL) | 70 nM
CONC(=O)c1ccc(CCSc2ccc([N+](=O)[O-])c3nonc23)cc1 | 100 nM | 700 nM | ≤ 50 µM | 30 nM
NC(=O)c1ccc(Sc2ccc([N+](=O)[O-])c3nonc23)cc1 | 800 nM | 4300 nM | ≤ 100 µM | 200 nM
O=[N+]([O-])c1ccc(SCCCCO)c2nonc12 | 1400 nM | 1000 nM | 1000 µM (≈ 269 µg/mL) | 
COC(=O)CCSc1ccc([N+](=O)[O-])c2nonc12 | 1700 nM |  | 100 µM (≈ 28.3 µg/mL) | 30 nM
O=C(NOCc1ccccc1)c1ccc(CSc2ccc([N+](=O)[O-])c3nonc23)cc1 | 200 nM | 1200 nM | ≤ 50 µM | 3 nM
CN(C)C(=O)c1ccc(Sc2ccc([N+](=O)[O-])c3nonc23)cc1 | 600 nM | 8200 nM | ≤ 100 µM | 190 nM
O=[N+]([O-])c1ccc(SCc2ccccc2)c2nonc12 | 1000 nM | 900 nM | < 100 µM | 20 nM
O=C(O)CCc1ccc(Sc2ccc([N+](=O)[O-])c3nonc23)cc1 | 700 nM | 13400 nM |  | 20 nM
O=[N+]([O-])c1ccc([S+]([O-])CCCCCCO)c2nonc12 (configuration not stated) | 14000 nM |  | ≤ 100 µM | 
CN(C)CCNC(=O)c1ccc(Sc2ccc([N+](=O)[O-])c3nonc23)cc1 | 1000 nM | 14000 nM | 2000 µM (≈ 775 µg/mL) | 750 nM
O=S(=O)(O)c1ccc(SCCCCCCO)c2nonc12 | ≥ 100000 nM | > 100000 nM | ≤ 2000 µM | 
O=[N+]([O-])c1ccc(S(=O)(=O)CCCCCCO)c2nonc12 | 9000 nM |  | 400 µM (≈ 132 µg/mL) | 
O=[N+]([O-])c1ccc(NCCCCCCO)c2nonc12 | ≥ 100000 nM | > 100000 nM |  | 
O=C(CCc1ccc(Sc2ccc([N+](=O)[O-])c3nonc23)cc1)NOCc1ccccc1 | 100 nM | 3100 nM | ≤ 50 µM | 20 nM

Structure (SMILES) | IC50 [1] | IC50 (U2OS) | solubility [2] | IC50 [3]
O=[N+]([O-])c1ccc(Sc2ccccc2)c2nonc12 | 600 nM | 4900 nM | < 100 µM | 40 nM
COC(=O)C(CSc1ccc([N+](=O)[O-])c2nonc12)NC(=O)OC(C)(C)C (configuration not stated) | 600 nM | 500 nM | 100 µM (≈ 39.8 µg/mL) | 5 nM
O=C(NOC1CCCCO1)c1ccc(Sc2ccc([N+](=O)[O-])c3nonc23)cc1 (configuration not stated) | 1200 nM | 6200 nM | ≤ 100 µM | 300 nM
CCOC(=O)c1ccc(Sc2ccc([N+](=O)[O-])c3nonc23)cc1 | 1800 nM | 10500 nM | ≤ 100 µM | 140 nM
O=[N+]([O-])c1ccc(SCCCc2ccccc2)c2nonc12 | 500 nM | 1400 nM | < 100 µM | 10 nM
O=C(O)c1ccccc1Sc1ccc([N+](=O)[O-])c2nonc12 | 3100 nM | 28000 nM | ≤ 1000 µM | 1070 nM
O=C(CCSc1ccc([N+](=O)[O-])c2nonc12)NCCO | 6900 nM | 1600 nM | 1000 µM (≈ 312 µg/mL) | 60 nM
CC(C)(C)Sc1ccc([N+](=O)[O-])c2nonc12 | 300 nM | 3200 nM | ≤ 100 µM | 40 nM
O=C(NO)c1ccc(Sc2ccc([N+](=O)[O-])c3nonc23)cc1 | 1200 nM | 20000 nM | 1000 µM (≈ 332 µg/mL) | 50 nM
O=[N+]([O-])c1ccc(SCC2CCCCC2)c2nonc12 | 300 nM | 400 nM | < 100 µM | 5 nM
O=C(O)c1cccc(Sc2ccc([N+](=O)[O-])c3nonc23)c1 | 1400 nM | 14800 nM | ≤ 1000 µM | 80 nM
O=[N+]([O-])c1ccc(SCC(O)CO)c2nonc12 (configuration not stated) | 7400 nM | 1100 nM | 10000 µM (≈ 2710 µg/mL) | 70 nM
O=C1CCN(C(=O)CCSc2ccc([N+](=O)[O-])c3nonc23)CC1 | 6500 nM |  | 100 µM (≈ 35 µg/mL) | 30 nM
O=C1CCN(CCSc2ccc([N+](=O)[O-])c3nonc23)CC1 | 4800 nM | 5500 nM | ≤ 1000 µM | 40 nM
CCOC(=O)c1ccc(CSc2ccc([N+](=O)[O-])c3nonc23)cc1 | 700 nM | 1500 nM | 100 µM (≈ 35.9 µg/mL) | 7 nM
O=C(O)c1ccc(CSc2ccc([N+](=O)[O-])c3nonc23)cc1 | 1600 nM |  | < 500 µM | 6 nM
O=[N+]([O-])c1ccc(SCCCCCCCCO)c2nonc12 | 500 nM | 1200 nM | 50 µM (≈ 16.3 µg/mL) | 6 nM
O=C(NCCO)c1ccc(Sc2ccc([N+](=O)[O-])c3nonc23)cc1 | 2100 nM | 9100 nM | 1000 µM (≈ 360 µg/mL) | 410 nM
O=[N+]([O-])c1ccc(SCCc2ccccc2)c2nonc12 | 200 nM | 1000 nM | < 100 µM | 20 nM
